Source: paper PMC7308271, “Discovery of a new class of orthosteric antagonists with nanomolar potency at extrasynaptic GABAA receptors” (Scientific Reports, 2020)

How the values were obtained:
[1] = biological target: T1, human α4β1δ receptors in δ-HEK cells (Homo sapiens, UniProt P18505+P48169); assay: Whole-cell patch-clamp electrophysiology, kinetic studies of GABA activation after 018 pre-application; type: cell-based
T1 construct: expressed in transfected cells; host or cells: δ-HEK (HEK293 Flp-In stably expressing human δ), transiently transfected with α4 and β1 1:1
Method: δ-HEK cells transiently expressing human α4β1δ receptors were seeded in 35 mm Petri dishes the day before experiment and used for recordings in a similar was as previously reported. On the day of experiment the dishes were transferred to the stage of an Axiovert 10 microscope (Zeiss, Germany), and the culture medium was exchanged for artificial balanced salt solution (ABBS) at room temperature (20−24 °C). The ABSS solution contained the following (in mM): NaCl 140, KCl 3.5, Na2HPO4 1.25, MgSO4 2, CaCl2 2, glucose 10, and HEPES 10; pH 7.35. The cells were viewed at 200× magnification, and cells containing green fluorescent protein were visualized with UV light from an HBO 50 lamp (Zeiss, Germany). The cells were approached with micropipettes of 1.2−3.3 MΩ resistance manufactured from 1.5 mm OD glass (World Precision Instruments, Sarasota, Florida) on a microelectrode puller, model PP-830 (Narishige, Tokyo, Japan). The intrapipette solution contained the following (in mM): KCl 140, MgCl2 1, CaCl2 1, EGTA 10, MgATP 2, and HEPES 10; pH 7.3. Standard patch-clamp techniques in voltage clamp mode[44] were used to record from cells in the whole-cell configuration using an EPC-9 amplifier (HEKA, Lambrecht, Germany). A clamping potential of −60 mV was used, and series resistance was 80% compensated. Whole-cell currents were recorded and subsequently analyzed using Pulse and PulseFit software (HEKA, Lambrecht, Germany).
ABSS solution containing the compounds were applied using two VC3–8xP pressurized application systems feeding into a sixteen-barreled perfusion pipette (ALA Scientific Instruments Inc., Farmingdale New York, USA) ending approximately 100 μm from the recorded cell. Between the compound applications, compound-free ABSS was applied from one of the barrels in order to quickly remove the compounds from the cell. […] The cells were left to recover for 1 min before the next application.
Current relaxations were fitted to a single or biexponential equation using a Simplex optimization algorithm (PulseFit; HEKA, Lambrecht, Germany). I(t)=I0+I1exp−t/τ1+I2exp−t/τ2
With I denoting the currents at a time t and τ1 and τ2 the time constants. All curve-fitting results were carefully inspected visually. In some cases, the current relaxations were fitted to both a mono- and a biexponential function and an F-test was applied to the residual sum of squares to determine the appropriateness of using a second component: F=(SSA−SSB)dfB/SSB(dfA−dfB)=(RMSA2−RMSB2)dfB/RMSB2(dfA−dfB) where SS and RMS are the sum of squares and root mean square deviation between fit and data, respectively. A and B refer to the single and biexponential fit, respectively. df represents the degree of freedom for each fit. Time constants were given as medians followed by the 25–75% percentile in square brackets.

[2] = biological target: [^3H]muscimol binding (GABAΑ receptors) in rat brain cortical homogenate; assay: [3H]muscimol radioligand binding in rat cortical homogenate; conditions: for Ki: 5 nM [^3H]muscimol, n = 4; for pKi ± SEM: [^3H]muscimol
Method: The binding studies were performed using rat brain homogenate prepared from the cortex of adult Sprague-Dawley male rats (250–350 g) obtained from commercial breeders (Janvier Laboratories, Le Genest-Saint-Isle, France), housed and cared for according to the Danish legislation regulating animal experiments and the European Communities Council Directive (2010/63/EU). Homogenate preparation was performed as described earlier. On the day of assay, membranes stored at −20 °C was quickly thawed followed by addition of 40 volumes of ice-cold binding buffer (50 mM TRIS-HCl buffer; pH 7.4) and homogenization using and UltraTurrax homogenizer before being centrifuged at 48,000 ×g for 10 minutes at 4 °C. This washing procedure was repeated 4 times before the final pellet was suspended in the binding buffer to final concentration of approximately 0.5 mg/mL protein.
The radioligand binding assay was performed using [^3H]muscimol in a 96-well format. [^3H]muscimol (5 nM) was incubated with 75 μg/well protein with or without test compound or control at 0 °C for 1 hour in a total volume of 200 μL binding buffer in triplicates. […] After incubation, the binding reaction was terminated by rapid filtration through GF/C unifilters (PerkinElmer) with the use of a 96-well Packard FilterMate cell harvester (PerkinElmer), followed by 3 times washing in 250 μL ice-cold binding buffer. After drying at 65 °C, microscintillation fluid was added to the dried filters and the radioactivity bound to the filter was quantified in a Packard TopCounter microplate scintillation counter. The obtained binding data was converted into specific binding (% of control) for each data point and fitted to the one-site competition model by […] (GraphPad Prism, version 8.2.1). The fitted IC50 values were converted into Ki values by means of the Cheng-Prusoff equation[46]. Data are from three independent experiments, performed with three technical replicates and Ki values are given as pKi ± SEM.

[3] = test system: MDR1 (P-glycoprotein), human; assay: Bidirectional membrane permeability in MDR1-MDCK cells; type: in vitro ADME, canine; conditions: dog, triplicate, read-out: basal to apical permeability
Method: (§1) Bidirectional permeability was tested for 018 and 2027 in the Madin-Darby canine kidney (MDCK) cell line expressing human multidrug resistance protein (MDR1, P-glycoprotein) (referred to as MDR1-MDCK cells) as described previously. To calculate efflux ratio the permeability in the basal-to-apical direction was divided by the permeability in the apical-to-basal direction. The obtained data is from triplicate measurements.

MDR1 (P-glycoprotein) = assay: as above; type: in vitro ADME, canine; conditions: dog, both before and after
Method: as §1

[4] = 100 μM GABA, 3 nM 018, biexponential fit
[5] = 100 μM GABA, 10 nM 018, biexponential fit
[6] = 100 μM GABA, 30 nM 018, biexponential fit
[7] = […] GABA, 10 nM 018, biexponential fit
[8] = […] GABA, 30 nM 018, biexponential fit, n = 5

T1 sequence (P48169 36-554): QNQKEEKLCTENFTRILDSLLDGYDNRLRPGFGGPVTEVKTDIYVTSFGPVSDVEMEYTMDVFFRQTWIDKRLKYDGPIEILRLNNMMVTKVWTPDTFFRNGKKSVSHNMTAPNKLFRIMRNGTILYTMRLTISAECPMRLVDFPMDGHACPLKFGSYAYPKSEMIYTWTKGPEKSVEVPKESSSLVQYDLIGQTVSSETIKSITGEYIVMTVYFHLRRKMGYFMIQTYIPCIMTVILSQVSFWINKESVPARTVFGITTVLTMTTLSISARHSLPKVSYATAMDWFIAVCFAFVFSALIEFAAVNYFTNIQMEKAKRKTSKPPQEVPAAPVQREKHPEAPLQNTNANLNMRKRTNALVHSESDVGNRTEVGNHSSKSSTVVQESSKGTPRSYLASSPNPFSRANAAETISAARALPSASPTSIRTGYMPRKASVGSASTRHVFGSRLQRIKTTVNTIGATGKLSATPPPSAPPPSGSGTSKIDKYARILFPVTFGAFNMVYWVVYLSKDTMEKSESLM
T1 sequence (P18505 26-474): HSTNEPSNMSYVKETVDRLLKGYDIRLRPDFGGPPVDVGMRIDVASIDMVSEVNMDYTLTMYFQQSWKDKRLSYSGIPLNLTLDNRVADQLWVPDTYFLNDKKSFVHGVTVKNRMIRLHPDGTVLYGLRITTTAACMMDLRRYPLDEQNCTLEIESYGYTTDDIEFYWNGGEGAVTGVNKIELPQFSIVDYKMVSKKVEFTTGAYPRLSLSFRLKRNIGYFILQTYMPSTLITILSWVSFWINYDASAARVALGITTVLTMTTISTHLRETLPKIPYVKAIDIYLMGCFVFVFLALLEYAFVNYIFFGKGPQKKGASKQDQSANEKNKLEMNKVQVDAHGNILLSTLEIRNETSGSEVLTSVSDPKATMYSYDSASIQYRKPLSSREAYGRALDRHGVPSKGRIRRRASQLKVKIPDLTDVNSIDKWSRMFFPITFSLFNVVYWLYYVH
T1 sequence (O14764 25-452 partner): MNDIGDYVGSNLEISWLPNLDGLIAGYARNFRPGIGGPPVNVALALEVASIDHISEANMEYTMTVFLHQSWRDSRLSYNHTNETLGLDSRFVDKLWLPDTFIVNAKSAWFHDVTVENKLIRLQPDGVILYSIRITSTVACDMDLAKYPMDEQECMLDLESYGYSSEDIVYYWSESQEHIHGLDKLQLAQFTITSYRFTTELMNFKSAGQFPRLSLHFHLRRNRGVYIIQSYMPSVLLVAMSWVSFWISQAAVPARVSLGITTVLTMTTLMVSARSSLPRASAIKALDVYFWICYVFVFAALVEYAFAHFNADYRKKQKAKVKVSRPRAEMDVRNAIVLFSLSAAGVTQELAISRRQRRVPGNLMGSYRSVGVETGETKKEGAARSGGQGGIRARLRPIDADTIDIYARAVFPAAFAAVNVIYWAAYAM

## NCCCC(=O)O [GABA]
[1]; 100 μM GABA alone (0 nM 018), monoexponential fit, median
  t1 (ms), activation time constant: 35.0 ms
[1]; […] GABA alone (0 nM 018), monoexponential fit, median [25–75% quartiles]
  τ (ms), activation time constant: 174 [148;186]^a ms

## O=C(Nc1cccc(C(=O)N2CCC3(CCNCC3)CC2)c1)c1cccs1 [compound 018, N-(3-(3,9-diazaspiro[5.5]undecane-3-carbonyl)phenyl)thiophene-2-carboxamide]
[1]; 100 μM GABA, 0.1 nM 018, monoexponential fit
  t1: 37.1 ms
[1]; 100 μM GABA, 3 nM 018
  %A1: 81.5%
[1]; [4]
  t1: 29.6 ms
  t2: 1070 ms
[1]; 100 μM GABA, 10 nM 018
  %A1: 33.9%
[1]; [5]
  t1: 41.4 ms
  t2: 2170 ms
[1]; 100 μM GABA, 30 nM 018
  %A1: 7.5%
[1]; [6]
  t1: 34.0 ms
  t2: 3685 ms
[1]; […] GABA, 0.1 nM 018, monoexponential fit
  τ1 (ms): 119 [101;167]^a ms
[1]; […] GABA, 3 nM 018, biexponential fit
  τ2 (ms): 1090 [960;2180] — ms
[1]; […] GABA, 3 nM 018, biexponential fit, n = 7
  τ1 (ms): 147 [115;183] ms
[1]; […] GABA, 3 nM 018, fast component share of total current
  %A1: 83.8 — %
[1]; […] GABA, 3 nM 018, monoexponential fit, n = 3
  τ1 (ms): 123 [73.3;273] ms
[1]; […] GABA, 10 nM 018
  %A1: 39.6%
[1]; [7]
  τ1 (ms): 107 [57.5;180] ms
  τ2 (ms): 2170 [1970;3010] ms
[1]; […] GABA, 30 nM 018
  %A1: 8.3 — %
[1]; [8]
  τ1: 68.0 ms
  τ1 (ms): 68.0 [56.3;106] — ms
  τ2 (ms): 3780 [3160;4710] ms
[1]; […] GABA, 30 nM 018, monoexponential fit, n = 3
  τ2 (ms): 4270 [4140;4920] ms
[1]; […] GABA, 1000 nM 018, monoexponential fit
  τ2 (ms): 3780 [3330;5350]^a ms
[2]
  Ki: 20 nM
  pKi ± SEM: 7.71 ± 0.06
[3]
  Papp B→A: 0.79 ×10⁻⁶ cm/s
MDR1 (P-glycoprotein)
  recovery: > 85%

## CC(=O)Nc1cccc(C(=O)N2CCC3(CCNCC3)CC2)c1 [compound 2027, N-(3-(3,9-diazaspiro[5.5]undecane-3-carbonyl)phenyl)acetamide]
[2]
  Ki: 560 nM
  pKi ± SEM: 6.25 ± 0.06
[3]
  Papp B→A: 0.67 ×10⁻⁶ cm/s
MDR1 (P-glycoprotein)
  recovery: > 85%
